Results: publication PMC9127750, “Structure-based design of CDC42 effector interaction inhibitors for the treatment of cancer” (Cell reports, 2022)
“And” between values parts separate entries of the source, which are not always exact repeats. Identical values can stand only once.

Tested on: WM3248 melanoma cells, 486 antibodies
Assay: Reverse phase protein arrays (RPPA)
Type: cell-based, Human
Settings: normalized to 0
Text: Pellets were snap frozen in liquid nitrogen and shipped to MD Anderson Cancer Center core RPPA facility for RPPA analysis (Table S5). Three biological replicates for each sample were generated.
Nomenclatures on the RPPA heatmaps: name_of_antibody.species_of_antibody.status_of_antibody. V - antibody validated; C - validation of antibody in progress; Q - antibody nonspecific; E – under evaluation; antibodies raised in M - mouse, G - goat, R - rabbit, or T - rat.

CN(C)c1cccc(Nc2cc(-c3ccccc3)nc(C3CCNCC3)n2)c1 [ARN22089, N1,N1-dimethyl-N3-(6-phenyl-2-(piperidin-4-yl)pyrimidin-4-yl)benzene-1,3-diamine]
EMA.M.C Norm_5 Average (5, average): 0.850 | ENY2.M.C Norm_5 Average (5, average): 0.965 | ER.a.R.V Norm_5 Average (5, average): 1.001 | ERCC1.R.C Norm_5 Average (5, average): 0.948 | ERCC5.R.C Norm_5 Average (5, average): 1.084 | ERRalpha.R.V Norm_5 Average (5, average): 0.950 | EVI1.R.V Norm_5 Average (5, average): 0.922 | Elk1_pS383.R.C Norm_5 Average (5, average): 1.032 | Enolase.1.R.V Norm_5 Average (5, average): 1.052 | Enolase.2.R.V Norm_5 Average (5, average): 0.966 | EphA2.R.V Norm_5 Average (5, average): 0.884 | EphA2_pS897.R.C Norm_5 Average (5, average): 0.843 | EphA2_pY588.R.C Norm_5 Average (5, average): 0.929 | Erk5.R.V Norm_5 Average (5, average): 1.026 | FABP5.R.C Norm_5 Average (5, average): 0.959 | FAK.R.C Norm_5 Average (5, average): 0.977 | FAK_pY397.R.V Norm_5 Average (5, average): 0.931 | FANCD2.R.V Norm_5 Average (5, average): 0.930 | FASN.R.V Norm_5 Average (5, average): 1.111 | FGF.basic.R.C Norm_5 Average (5, average): 0.987 | FN14.R.C Norm_5 Average (5, average): 1.118 | FOXM1.R.V Norm_5 Average (5, average): 0.915 | FOXO3.R.V Norm_5 Average (5, average): 1.012 | FRS2.alpha_pY196.R.V Norm_5 Average (5, average): 0.996 | FTO.R.V Norm_5 Average (5, average): 1.020 | Fibronectin.R.V Norm_5 Average (5, average): 1.193 | FoxO3a_pS318_S321.R.C Norm_5 Average (5, average): 0.972 | G6PD.R.V Norm_5 Average (5, average): 0.950 | GATA3.M.V Norm_5 Average (5, average): 1.077 | GATA6.R.V Norm_5 Average (5, average): 0.971 | GCLM.R.V Norm_5 Average (5, average): 0.967 | GCN5L2.R.V Norm_5 Average (5, average): 1.021 | GGPS1.M.V Norm_5 Average (5, average): 0.977 | GRB2.R.V Norm_5 Average (5, average): 1.022 | GRB7.R.V Norm_5 Average (5, average): 0.976 | GSK.3a.b.M.V Norm_5 Average (5, average): 0.937 | GSK.3a.b_pS21_S9.R.V Norm_5 Average (5, average): 1.111 | Gab2.R.V Norm_5 Average (5, average): 1.100 | Gli1.R.C Norm_5 Average (5, average): 0.999 | Gli3.R.C Norm_5 Average (5, average): 1.056 | Glucocorticoid.Receptor.R.V Norm_5 Average (5, average): 1.053 | Glutamate.D1.2.R.V Norm_5 Average (5, average): 0.990 | Grp75.R.C Norm_5 Average (5, average): 1.021 | Gys.R.V Norm_5 Average (5, average): 0.987 | Gys_pS641.R.V Norm_5 Average (5, average): 0.978 | H2AX_pS139.R.C Norm_5 Average (5, average): 1.026 | H2AX_pS140.M.C Norm_5 Average (5, average): 0.967 | HER2.M.V Norm_5 Average (5, average): 0.971 | HER2_pY1248.R.V Norm_5 Average (5, average): 1.023 | HER3.R.V Norm_5 Average (5, average): 0.924 | HER3_pY1289.R.C Norm_5 Average (5, average): 1.060 | HES1.R.V Norm_5 Average (5, average): 1.168 | eEF2.R.C Norm_5 Average (5, average): 1.217 | eEF2K.R.V Norm_5 Average (5, average): 1.024 | eIF4E.R.V Norm_5 Average (5, average): 1.028 | eIF4E_pS209.R.V Norm_5 Average (5, average): 0.945 | DNMT1.R.V Norm_5 (5, replicates 1-3): 0.988 and 0.998 and 1.098 | DRP1.R.V Norm_5 (5, replicates 1-3): 0.998 and 1.001 | DUSP4.R.V Norm_5 (5, replicates 1-3): 1.082 and 1.118 and 1.119 | DUSP6.R.C Norm_5 (5, replicates 1-3): 1.285 and 1.005 and 1.269 | DYRK1B.R.C Norm_5 (5, replicates 1-3): 0.880 and 0.877 and 1.004 | Dvl3.R.V Norm_5 (5, replicates 1-3): 0.981 and 1.018 and 0.968 | E2F1.R.V Norm_5 (5, replicates 1-3): 0.990 and 0.958 and 0.964 | E.Cadherin.R.V Norm_5 (5, replicates 1-3): 0.812 and 0.783 and 0.958 | EGFR.R.V Norm_5 (5, replicates 1-3): 0.998 and 1.139 and 0.952 | EGFR_pY1068.R.C Norm_5 (5, replicates 1-3): 0.901 and 0.903 and 1.000 | EGFR_pY1173.R.V Norm_5 (5, replicates 1-3): 1.024 and 1.026 and 1.016 | EMA.M.C Norm_5 (5, replicates 1-3): 0.673 and 0.895 and 0.983 | ENY2.M.C Norm_5 (5, replicates 1-3): 0.935 and 1.052 and 0.908 | ER.a.R.V Norm_5 (5, replicates 1-3): 0.980 and 1.004 and 1.018 | ER.a_pS118.R.V Norm_5 (5, replicates 1-3): 1.247 | ERCC1.R.C Norm_5 (5, replicates 1-3): 0.895 and 0.962 and 0.988 | ERCC5.R.C Norm_5 (5, replicates 1-3): 1.145 | ERRalpha.R.V Norm_5 (5, replicates 1-3): 0.932 and 0.933 and 0.985 | EVI1.R.V Norm_5 (5, replicates 1-3): 0.871 and 0.956 and 0.940 | Elk1_pS383.R.C Norm_5 (5, replicates 1-3): 1.029 | Enolase.1.R.V Norm_5 (5, replicates 1-3): 1.006 and 1.195 and 0.954 | Enolase.2.R.V Norm_5 (5, replicates 1-3): 0.936 and 1.012 | EphA2.R.V Norm_5 (5, replicates 1-3): 0.843 and 0.933 and 0.875 | EphA2_pS897.R.C Norm_5 (5, replicates 1-3): 0.767 and 0.950 and 0.814 | EphA2_pY588.R.C Norm_5 (5, replicates 1-3): 0.881 and 0.946 and 0.960 | Erk5.R.V Norm_5 (5, replicates 1-3): 0.987 and 1.054 | Ets.1.R.V Norm_5 (5, replicates 1-3): 1.139 and 1.226 and 0.851 | FABP5.R.C Norm_5 (5, replicates 1-3): 1.017 and 1.210 and 0.650 | FAK.R.C Norm_5 (5, replicates 1-3): 0.898 and 1.113 and 0.922 | FAK_pY397.R.V Norm_5 (5, replicates 1-3): 0.881 and 0.907 and 1.006 | FANCD2.R.V Norm_5 (5, replicates 1-3): 0.905 and 0.913 and 0.972 | FASN.R.V Norm_5 (5, replicates 1-3): 1.237 and 1.011 and 1.085 | FGF.basic.R.C Norm_5 (5, replicates 1-3): 0.849 | FN14.R.C Norm_5 (5, replicates 1-3): 1.117 and 1.165 | FOXM1.R.V Norm_5 (5, replicates 1-3): 0.776 and 0.924 and 1.046 | FOXO3.R.V Norm_5 (5, replicates 1-3): 0.964 and 1.056 and 1.017 | FRS2.alpha_pY196.R.V Norm_5 (5, replicates 1-3): 0.883 and 1.011 | FTO.R.V Norm_5 (5, replicates 1-3): 1.133 and 0.883 | Fibronectin.R.V Norm_5 (5, replicates 1-3): 1.256 and 1.230 | FoxO3a_pS318_S321.R.C Norm_5 (5, replicates 1-3): 0.972 and 1.006 | G6PD.R.V Norm_5 (5, replicates 1-3): 0.921 and 1.016 and 0.913 | GATA3.M.V Norm_5 (5, replicates 1-3): 1.233 and 0.961 | GATA6.R.V Norm_5 (5, replicates 1-3): 0.980 and 0.952 and 0.979 | GCLC.R.C Norm_5 (5, replicates 1-3): 1.128 and 0.940 | GCLM.R.V Norm_5 (5, replicates 1-3): 0.953 and 1.003 | GCN5L2.R.V Norm_5 (5, replicates 1-3): 0.975 and 1.052 | GGPS1.M.V Norm_5 (5, replicates 1-3): 0.942 | GRB2.R.V Norm_5 (5, replicates 1-3): 0.966 and 1.023 and 1.076 | GRB7.R.V Norm_5 (5, replicates 1-3): 1.030 and 0.936 and 0.962 | GSK.3B.R.C Norm_5 (5, replicates 1-3): 0.980 and 1.031 and 1.125 | GSK.3a.b.M.V Norm_5 (5, replicates 1-3): 1.010 and 0.971 and 0.830 | GSK.3a.b_pS21_S9.R.V Norm_5 (5, replicates 1-3): 1.277 and 1.230 | Gab2.R.V Norm_5 (5, replicates 1-3): 1.236 and 1.059 and 1.006 | Gli1.R.C Norm_5 (5, replicates 1-3): 0.936 and 0.961 and 1.099 | Gli3.R.C Norm_5 (5, replicates 1-3): 1.128 and 1.124 and 0.916 | Glucocorticoid.Receptor.R.V Norm_5 (5, replicates 1-3): 1.063 and 1.061 and 1.034 | Glutamate.D1.2.R.V Norm_5 (5, replicates 1-3): 1.128 and 0.932 | Glutaminase.R.C Norm_5 (5, replicates 1-3): 1.249 and 0.891 | Granzyme.B.R.V Norm_5 (5, replicates 1-3): 1.216 and 0.936 | Grp75.R.C Norm_5 (5, replicates 1-3): 0.988 and 1.124 and 0.950 | Gys.R.V Norm_5 (5, replicates 1-3): 0.964 and 0.981 and 1.016 | Gys_pS641.R.V Norm_5 (5, replicates 1-3): 1.014 and 0.854 | H2AX_pS139.R.C Norm_5 (5, replicates 1-3): 1.023 and 1.013 | H2AX_pS140.M.C Norm_5 (5, replicates 1-3): 0.966 and 1.110 and 0.827 | HER2.M.V Norm_5 (5, replicates 1-3): 0.993 and 0.940 and 0.980 | HER2_pY1248.R.V Norm_5 (5, replicates 1-3): 0.876 and 1.016 | HER3.R.V Norm_5 (5, replicates 1-3): 0.898 and 0.946 and 0.928 | HER3_pY1289.R.C Norm_5 (5, replicates 1-3): 1.034 and 1.212 and 0.933 | HES1.R.V Norm_5 (5, replicates 1-3): 1.299 and 1.047 and 1.158 | Heregulin.R.V Norm_5 (5, replicates 1-3): 1.014 and 1.131 and 1.059 | eEF2.R.C Norm_5 (5, replicates 1-3): 1.519 and 1.622 and 0.509 | eEF2K.R.V Norm_5 (5, replicates 1-3): 1.078 and 1.168 | eIF4E.R.V Norm_5 (5, replicates 1-3): 0.986 and 1.010 | eIF4E_pS209.R.V Norm_5 (5, replicates 1-3): 0.988 and 0.981 | eIF4G.R.C Norm_5 (5, replicates 1-3): 1.060 and 1.058 and 1.164 | DNMT1.R.V Norm_10 Average (10, average): 1.056 | DRP1.R.V Norm_10 Average (10, average): 0.998 | DUSP4.R.V Norm_10 Average (10, average): 0.891 | DUSP6.R.C Norm_10 Average (10, average): 1.050 | DYRK1B.R.C Norm_10 Average (10, average): 0.948 | Dvl3.R.V Norm_10 Average (10, average): 0.962 | E2F1.R.V Norm_10 Average (10, average): 1.083 | E.Cadherin.R.V Norm_10 Average (10, average): 0.939 | EGFR.R.V Norm_10 Average (10, average): 0.975 | EGFR_pY1068.R.C Norm_10 Average (10, average): 0.957 | EMA.M.C Norm_10 Average (10, average): 0.953 | ER.a.R.V Norm_10 Average (10, average): 0.921 | ERCC5.R.C Norm_10 Average (10, average): 0.962 | ERRalpha.R.V Norm_10 Average (10, average): 1.014 | EVI1.R.V Norm_10 Average (10, average): 1.011 | Elk1_pS383.R.C Norm_10 Average (10, average): 0.998 | Enolase.1.R.V Norm_10 Average (10, average): 1.160 | EphA2.R.V Norm_10 Average (10, average): 0.919 | EphA2_pS897.R.C Norm_10 Average (10, average): 0.866 | EphA2_pY588.R.C Norm_10 Average (10, average): 0.941 | Erk5.R.V Norm_10 Average (10, average): 0.877 | Ets.1.R.V Norm_10 Average (10, average): 1.306 | FABP5.R.C Norm_10 Average (10, average): 1.237 | FAK.R.C Norm_10 Average (10, average): 0.954 | FANCD2.R.V Norm_10 Average (10, average): 0.930 | FASN.R.V Norm_10 Average (10, average): 0.962 | FGF.basic.R.C Norm_10 Average (10, average): 0.946 | FOXM1.R.V Norm_10 Average (10, average): 0.929 | FOXO3.R.V Norm_10 Average (10, average): 1.081 | FRS2.alpha_pY196.R.V Norm_10 Average (10, average): 1.373 | FTO.R.V Norm_10 Average (10, average): 1.099 | Fibronectin.R.V Norm_10 Average (10, average): 1.015
